Our source for the IC50 values is paper PMC2731242, “Oleic Acid Biosynthesis in Plasmodium falciparum: Characterization of the Stearoyl-CoA Desaturase and Investigation as a Potential Therapeutic Target” (PLoS ONE, 2009).

A word on the pIC50: it is the negative decadic logarithm of the IC50, by convention in mol/L. Lower therefore signals a large IC50.

The test concerns the target T1, stearoyl-CoA Δ9-desaturase (PfSCD, PFE0555w) (Plasmodium falciparum, UniProt Q8I0W9).
T1 construct: gene PF3D7_0511200; native enzyme in crude schizont lysate (500 µg total protein)
Briefly: cell-free desaturase assay in schizont lysates, […]-stearoyl-CoA to oleic acid, silver nitrate TLC. Type of test: biochemical.

pIC50: −log10 of the molar value.

T1 sequence (Q8I0W9 entry or part of it, stated change not applied): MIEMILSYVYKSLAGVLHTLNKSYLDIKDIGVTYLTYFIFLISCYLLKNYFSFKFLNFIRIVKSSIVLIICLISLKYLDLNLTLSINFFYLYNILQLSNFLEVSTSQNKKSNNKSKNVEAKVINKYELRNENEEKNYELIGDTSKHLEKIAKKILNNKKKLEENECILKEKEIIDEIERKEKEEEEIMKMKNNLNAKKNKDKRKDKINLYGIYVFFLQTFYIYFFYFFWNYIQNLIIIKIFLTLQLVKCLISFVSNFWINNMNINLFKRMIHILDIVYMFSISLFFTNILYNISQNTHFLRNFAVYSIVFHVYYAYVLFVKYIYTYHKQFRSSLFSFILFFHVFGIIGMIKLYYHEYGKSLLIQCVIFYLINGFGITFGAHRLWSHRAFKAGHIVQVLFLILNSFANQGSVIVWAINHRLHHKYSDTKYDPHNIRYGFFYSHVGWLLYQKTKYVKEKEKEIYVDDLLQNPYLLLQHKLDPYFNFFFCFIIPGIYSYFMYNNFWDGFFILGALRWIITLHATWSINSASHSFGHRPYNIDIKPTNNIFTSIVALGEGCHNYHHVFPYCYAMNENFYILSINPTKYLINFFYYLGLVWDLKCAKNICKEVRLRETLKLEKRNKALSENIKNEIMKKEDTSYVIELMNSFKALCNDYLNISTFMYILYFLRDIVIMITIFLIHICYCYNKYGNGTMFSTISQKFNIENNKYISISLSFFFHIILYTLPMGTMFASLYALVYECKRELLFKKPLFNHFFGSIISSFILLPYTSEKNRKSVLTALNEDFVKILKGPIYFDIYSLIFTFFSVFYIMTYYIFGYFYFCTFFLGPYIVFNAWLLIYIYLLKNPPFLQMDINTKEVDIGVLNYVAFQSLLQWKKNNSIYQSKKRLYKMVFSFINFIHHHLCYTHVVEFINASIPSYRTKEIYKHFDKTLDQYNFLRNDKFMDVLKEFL

For `CCCCCCCCC1=C(CCCCCCCC(=O)OC)C1` [MeSter, methyl sterculate], the pIC50 is 3.98.
